According to ChEMBL document CHEMBL5528039, “Discovery of a Macrocyclic Influenza Cap-Dependent Endonuclease Inhibitor” (J Med Chem, 2024):
Activity calls are given as the source filed them. The rule behind the calls is not given here.

Experiments:
[1] = Prodrug conversion in BALB/c mouse assessed as Baloxavir half-life at 5 mg/kg, po measured after 24 hrs by LC-MS/MS analysis; format: ADME, organism-based; details: in vivo
[2] = Prodrug conversion in BALB/c mouse assessed as Baloxavir Cmax at 5 mg/kg, po measured after 24 hrs by LC-MS/MS analysis; format: ADME, organism-based; details: in vivo
[3] = Prodrug conversion in BALB/c mouse assessed as Baloxavir AUC (0 to last) at 5 mg/kg, po measured after 24 hrs by LC-MS/MS analysis; format: ADME, organism-based; details: in vivo
[4] = tested on: Influenza A virus; assay: Antiviral activity against Influenza A virus A/PR/8/34 infected in BALB/c mouse assessed as reduction in viral load in lungs at 5 mg/kg, po pre-infected with virus for 48 hrs followed by twice daily compound administration starting from day 2 and measured 1 hrs after last dose on day 5 by crystal violet staining based analysis; format: functional, organism-based; details: time 73.0 hrs
[5] = Inhibition of influenza A virus A/WSN/33 (H1N1) RNA polymerase transfected in HEK293T/17 cells incubated for 24 hrs by dual luciferase reporter gene assay; format: cell-based; details: HEK293T/17, 24 h
[6] = tested on: Influenza B virus; assay: Antiviral activity against Influenza B virus B/Lee/40 infected in MDCK cells assessed as reduction in virus-induced cytopathic effect incubated for 5 days by CCK8 based microplate spectrophotometric analysis; format: functional, organism-based; details: B/Lee/40, MDCK, 120 h; for EC90: time 5 day
[7] = tested on: Influenza A virus; assay: Antiviral activity against Influenza A virus A/PR/8/34 (H1N1) infected in MDCK cells assessed as reduction in virus-induced cytopathic effect incubated for 5 days by CCK8 based microplate spectrophotometric analysis; format: functional, organism-based; details: 120 h; for EC90: time 5 day
[8] = Half-life in BALB/c mouse at 2 mg/kg, iv measured after 24 hrs by LC-MS/MS analysis; format: ADME, organism-based; details: in vivo
[9] = Metabolic stability in human liver microsomes assessed as intrinsic clearance at 1 uM measured upto 60 mins in presence of NADPH by LC-MS/MS analysis; format: ADME, Microsome; details: 1 h
[10] = Protein binding in human plasma assessed as unbound fraction at 400 uM incubated for 4 hrs by LC-MS/MS analysis; format: ADME, cell-free
[11] = tested on: Influenza A virus; assay: Antiviral activity against Influenza A virus A/California/2/2014 (H3N2) infected in MDCK cells assessed as reduction in virus-induced cytopathic effect incubated for 5 days by CCK8 based microplate spectrophotometric analysis; format: functional, organism-based; details: 120 h; for EC90: time 5 day
[12] = tested on: Influenza A virus; assay: Antiviral activity against Influenza A virus A/California/07/2009 (H1N1) infected in MDCK cells assessed as reduction in virus-induced cytopathic effect incubated for 5 days by CCK8 based microplate spectrophotometric analysis; format: functional, organism-based; details: 120 h; for EC90: time 5 day
[13] = Clearance in BALB/c mouse at 2 mg/kg, iv measured after 24 hrs by LC-MS/MS analysis; format: ADME, organism-based; details: in vivo
[14] = Volume of distribution at steady state in BALB/c mouse at 2 mg/kg, iv measured after 24 hrs by LC-MS/MS analysis; format: ADME, organism-based; details: in vivo, read-out: Vdss
[15] = Protein binding in mouse plasma assessed as unbound fraction at 400 uM incubated for 4 hrs by LC-MS/MS analysis; format: ADME, cell-free
[16] = tested on: Influenza B virus; assay: Antiviral activity against Influenza B virus B/Florida/78/2015 infected in MDCK cells assessed as reduction in virus-induced cytopathic effect incubated for 5 days by CCK8 based microplate spectrophotometric analysis; format: functional, organism-based; details: B/Florida/78/2015, MDCK, 120 h; for EC90: time 5 day
[17] = AUC (0 to last) in BALB/c mouse at 2 mg/kg, iv measured after 24 hrs by LC-MS/MS analysis; format: ADME, organism-based; details: in vivo
[18] = Half-life in Beagle dog at 0.25 mg/kg, iv measured after 24 hrs by LC-MS/MS analysis; format: ADME, organism-based, Canis lupus familiaris; details: in vivo
[19] = tested on: Influenza B virus; assay: Potency index, ratio of baloxavir EC50 to test compound EC50 for antiviral activity against Influenza B virus B/Florida/78/2015 infected in MDCK cells assessed as reduction in virus-induced cytopathic effect incubated for 5 days by CCK8 based microplate spectrophotometric analysis; format: functional; details: time 5 day
[20] = tested on: MRC5; assay: Cytotoxicity against human MRC5 cells incubated for 3 days by CellTiter-Glo assay; format: functional; details: MRC5, 72 h, time 3 day
[21] = AUC (0 to last) in cynomolgus monkey at 0.25 mg/kg, iv measured after 24 hrs by LC-MS/MS analysis; format: ADME, organism-based, Macaca fascicularis; details: in vivo
[22] = Metabolic stability in dog liver microsomes assessed as intrinsic clearance at 1 uM measured upto 60 mins in presence of NADPH by LC-MS/MS analysis; format: ADME, Canis lupus familiaris, Microsome; details: 1 h
[23] = Protein binding in cynomolgus monkey plasma assessed as unbound fraction at 400 uM incubated for 4 hrs by LC-MS/MS analysis; format: ADME, cell-free, Macaca fascicularis
[24] = tested on: HEp-2; assay: Cytotoxicity against human HEp-2 cells incubated for 3 days by CellTiter-Glo assay; format: functional; details: HEp-2, 72 h, time 3 day
[25] = tested on: A-375; assay: Cytotoxicity against human A-375 cells incubated for 3 days by CellTiter-Glo assay; format: functional; details: A-375, 72 h, time 3 day
[26] = Clearance in cynomolgus monkey at 0.25 mg/kg, iv measured after 24 hrs by LC-MS/MS analysis; format: ADME, organism-based, Macaca fascicularis; details: in vivo
[27] = Metabolic stability in cynomolgus monkey liver microsomes assessed as intrinsic clearance at 1 uM measured upto 60 mins in presence of NADPH by LC-MS/MS analysis; format: ADME, Macaca fascicularis, Microsome; details: 1 h
[28] = tested on: HEK293; assay: Cytotoxicity against HEK293 cells incubated for 3 days by CellTiter-Glo assay; format: functional; details: Homo sapiens, HEK293, 72 h; time 3 day
[29] = tested on: Influenza B virus; assay: Potency index, ratio of baloxavir EC50 to test compound EC50 for antiviral activity against Influenza B virus B/Lee/40 infected in MDCK cells assessed as reduction in virus-induced cytopathic effect incubated for 5 days by CCK8 based microplate spectrophotometric analysis; format: functional; details: time 5 day
[30] = Half-life in cynomolgus monkey at 0.25 mg/kg, iv measured after 24 hrs by LC-MS/MS analysis; format: ADME, organism-based, Macaca fascicularis; details: in vivo
[31] = tested on: HepG2; assay: Cytotoxicity against human HepG2 cells incubated for 3 days by CellTiter-Glo assay; format: functional; details: HepG2, 72 h, time 3 day
[32] = Clearance in Beagle dog at 0.25 mg/kg, iv measured after 24 hrs by LC-MS/MS analysis; format: ADME, organism-based, Canis lupus familiaris; details: in vivo
[33] = AUC (0 to last) in Beagle dog at 0.25 mg/kg, iv measured after 24 hrs by LC-MS/MS analysis; format: ADME, organism-based, Canis lupus familiaris; details: in vivo
[34] = tested on: H1-HeLa; assay: Cytotoxicity against human H1-HeLa cells incubated for 3 days by CellTiter-Glo assay; format: functional; details: 72 h, time 3 day
[35] = Selectivity index, ratio of CC50 for human MOLT-4 cells to EC50 for antiviral activity against Influenza B virus B/Lee/40 infected in MDCK cells; format: functional
[36] = Volume of distribution at steady state in Beagle dog at 0.25 mg/kg, iv measured after 24 hrs by LC-MS/MS analysis; format: ADME, organism-based, Canis lupus familiaris; details: in vivo, read-out: Vdss
[37] = Metabolic stability in mouse liver microsomes assessed as intrinsic clearance at 1 uM measured upto 60 mins in presence of NADPH by LC-MS/MS analysis; format: ADME, Microsome; details: 1 h
[38] = tested on: MOLT-4; assay: Cytotoxicity against human MOLT-4 cells incubated for 3 days by CellTiter-Glo assay; format: functional; details: MOLT-4, 72 h, time 3 day
[39] = Volume of distribution at steady state in cynomolgus monkey at 0.25 mg/kg, iv measured after 24 hrs by LC-MS/MS analysis; format: ADME, organism-based, Macaca fascicularis; details: in vivo, read-out: Vdss
[40] = tested on: COLO 205; assay: Cytotoxicity against human COLO 205 cells incubated for 3 days by CellTiter-Glo assay; format: functional; details: COLO 205, 72 h, time 3 day
[41] = tested on: CCRF-CEM; assay: Cytotoxicity against human CCRF-CEM cells incubated for 3 days by CellTiter-Glo assay; format: functional; details: 72 h, time 3 day
[42] = Protein binding in dog plasma assessed as unbound fraction at 400 uM incubated for 4 hrs by LC-MS/MS analysis; format: ADME, cell-free, Canis lupus familiaris

## COC(=O)OCOc1c2n(ccc1=O)N([C@@H]1c3ccccc3SCc3c1ccc(F)c3F)[C@@H]1COCCN1C2=O [BALOXAVIR MARBOXIL]
[1]
  t1/2: 4.1 h
[2]
  Cmax: 145 nM
[3]
  AUClast: 0.88 µM·h
[4]
  Activity: Active

## O=C1c2c(O)c(=O)ccn2N([C@@H]2c3ccccc3SCc3c2ccc(F)c3F)[C@@H]2COCCN12 [BALOXAVIR]
[5]
  EC50: 5.46 nM
[6]
  EC50: 21 nM
  EC90: 43 nM
[7]
  EC50: 2.1 nM
  EC90: 4.6 nM
[8]
  half-life: 3.9 h
[9]
  CLint: < 8.6 µL/min/mg
[10]
  fraction unbound at 4 h, 400 µM: 0.083
[11]
  EC50: 1.2 nM
  EC90: 1.8 nM
[12]
  EC50: 1.4 nM
  EC90: 3 nM
[13]
  clearance: 61.6 mL/min/kg
[14]
  Vd: 14 L/kg
[15]
  fraction unbound at 4 h, 400 µM: 0.153
[16]
  EC50: 4.8 nM
  EC90: 7.4 nM
[17]
  AUC(0-t) at 24 h: 1.35 µM·h

## CN1C(=O)c2c(O)c(=O)ccn2N2[C@H](c3ccccc3)c3cc(F)c(F)cc3OCC[C@@H]12
[18]
  half-life: 2.6 h
[19]
  Ratio EC50: 3
[5]
  EC50: 12.3 nM
[20]
  CC50: 20000 nM
[21]
  AUC(0-t) at 24 h: 0.458 µM·h
[22]
  CLH: 0.0138 mL/min/kg
[23]
  fraction unbound at 4 h, 400 µM: 0.382
[6]
  EC50: 8.5 nM
  EC90: 16 nM
[24]
  CC50: 12400 nM
[7]
  EC50: 7.2 nM
  EC90: 12 nM
[25]
  CC50: 13300 nM
[26]
  clearance: 20.8 mL/min/kg
[27]
  CLH: < 0.013 mL/min/kg
[8]
  half-life: 1.2 h
[28]
  CC50: 20300 nM
[9]
  CLint: < 8.6 µL/min/mg
[10]
  fraction unbound at 4 h, 400 µM: 0.103
[11]
  EC50: 1.2 nM
  EC90: 3.2 nM
[29]
  Ratio EC50: 3
[30]
  half-life: 2.2 h
[12]
  EC50: 2.6 nM
  EC90: 4.2 nM
[31]
  CC50: 5190 nM
[32]
  clearance: 20.8 mL/min/kg
[33]
  AUC(0-t) at 24 h: 0.576 µM·h
[13]
  clearance: 57.4 mL/min/kg
[14]
  Vd: 4.41 L/kg
[34]
  CC50: 9770 nM
[15]
  fraction unbound at 4 h, 400 µM: 0.122
[35]
  Ratio CC50/EC50: >485
[36]
  Vd: 3.74 L/kg
[37]
  CLH: 0.1106 mL/min/kg
[38]
  CC50: 4130 nM
[39]
  Vd: 3.68 L/kg
[40]
  CC50: 7040 nM
[41]
  CC50: 6480 nM
[16]
  EC50: 0.9 nM
  EC90: 1.6 nM
[17]
  AUC(0-t) at 24 h: 1.32 µM·h
[42]
  fraction unbound at 4 h, 400 µM: 0.218
